Test results as given in PubChem BioAssay (NCI).
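Following 48 hours of exposure in 96-well plates, responses at five concentrations were used to interpolate endpoints linearly. Here, GI50 denotes the concentration required for 50% inhibition of growth. TGI denotes the concentration required for complete inhibition of growth.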

How the values were obtained:
Test in all cases: DTP human tumour cell line panel, 48 h
[1] = system: A498 renal
[2] = system: HCC-2998 colon
[3] = system: SF-539 CNS
[4] = system: LOX IMVI melanoma
[5] = system: IGROV1 ovarian
[6] = system: SW-620 colon
[7] = system: EKVX NSCLC
[8] = system: ACHN renal
[9] = system: OVCAR-5 ovarian
[10] = system: HS 578T breast

SMILES | TGI [1] | TGI [2] | TGI [3] | TGI [4] | TGI [5] | TGI [6] | TGI [7] | TGI [8] | TGI [9] | GI50 [1] | GI50 [2] | GI50 [3] | GI50 [4] | GI50 [5] | GI50 [6] | GI50 [7] | GI50 [8] | GI50 [9] | GI50 [10] | TGI [10]
CC1CC[C@]2(C(=O)O)CCC3(COC(=O)/C=C\c4ccc(O)cc4)C(=CCC4[C@@]5(C)CC[C@H](O)C(C)(C)C5CC[C@]43C)[C@@H]2[C@H]1C (stereo partly drawn) | 60.4 µM | 33 µM | 31.3 µM | 28.2 µM | 26.8 µM | > 100 µM | 32.8 µM | 22.5 µM | 48.9 µM |  |  |  |  |  |  |  |  |  |  | 
O=C(Nc1ccc(Cl)cc1Cl)C1C(=O)N(c2ccc(Cl)cc2Cl)C(=O)/C1=N\Nc1ccc([N+](=O)[O-])cc1[N+](=O)[O-] (stereo not drawn) | > 100 µM | > 100 µM | > 100 µM |  | > 100 µM | > 100 µM | > 100 µM | > 100 µM | > 100 µM |  |  |  |  |  |  |  |  |  |  | 
CC1CC(C2=CC=CCS2)=Nc2ccccc2S1 (stereo not drawn) | > 100 µM | > 100 µM | > 100 µM | > 100 µM | > 100 µM | > 100 µM | > 100 µM | > 100 µM | > 100 µM |  |  |  |  |  |  |  |  |  |  | 
CCN(CC)CCOCC[C@H]1CC[C@H]2[C@@H]3[C@H](C)Cc4cc(OS(N)(=O)=O)ccc4[C@H]3CC[C@]12C | 3.96 µM | 3.23 µM | 1.87 µM | 2.77 µM | 8 µM | 2.75 µM | 3.65 µM | 5.33 µM | 7.34 µM | 1.54 µM | 1.63 µM | 0.654 µM | 1.33 µM | 2.41 µM | 1.38 µM | 0.765 µM | 1.95 µM | 2.52 µM |  | 
Cc1ccc(S(=O)(=O)N[C@H](C(=O)O)c2ccccc2)cc1 | > 100 µM | > 100 µM | > 100 µM | > 100 µM | > 100 µM | > 100 µM | > 100 µM | > 100 µM | > 100 µM |  |  |  |  |  |  |  |  |  |  | 
COc1ccc(C(=O)c2cc(OC)c(OC)c(OC)c2)cc1 |  | > 14 µM | 1.28 µM | > 82.2 µM | > 100 µM | > 100 µM | > 100 µM | > 91.3 µM | > 100 µM |  |  |  |  |  |  |  |  |  |  | 
O=C(Nc1ccccc1-c1n[nH]c(=S)[nH]c1=O)C(F)(F)F |  | > 100 µM | > 100 µM | > 100 µM | > 100 µM | > 100 µM | > 100 µM | > 100 µM | > 100 µM |  |  |  |  |  |  |  |  |  |  | 
ON/N=C/c1cc2c(cc1Br)OCO2 |  | > 386 µM | > 386 µM | > 386 µM | > 386 µM | > 386 µM | > 386 µM | > 386 µM | > 386 µM |  |  |  |  |  |  |  |  |  |  | 
NC1=NC(=O)/C(=C/c2ccccc2[N+](=O)[O-])C(N)=N1 |  | > 100 µM | > 100 µM | > 100 µM | > 100 µM | > 100 µM | > 100 µM | > 100 µM | > 100 µM |  |  |  |  |  |  |  |  |  |  | 
F | 4390 µM | 6190 µM | 4620 µM | > 6870 µM | > 6870 µM |  | 5220 µM | > 6870 µM | > 6870 µM | 1620 µM | 2610 µM | 1770 µM | 2290 µM | 2800 µM |  | 2100 µM | 3050 µM | 2560 µM |  | 
O=C1C(Cl)=C(Nc2cccc(Cl)c2)C(=O)N1Cc1ccccc1 | 22.7 µM | 18.1 µM |  | 15.3 µM | > 100 µM |  |  | 28.8 µM | 33.1 µM | 10.6 µM | 4.59 µM |  | 4.01 µM | 8.15 µM |  |  | 14 µM | 9.49 µM | 6.34 µM | 27.5 µM
O=C(Nc1c(O)[nH]c(=S)[nH]c1=O)c1ccccc1F | > 100 µM |  | > 100 µM | > 100 µM | > 100 µM | > 100 µM |  | > 100 µM | > 100 µM |  |  |  |  |  |  |  |  |  |  | 
CC(C)(C)OC1=C(OC(C)(C)C)C(O)(c2ccccc2)C1=O (stereo not drawn) | > 100 µM | > 100 µM | > 100 µM | > 100 µM | > 100 µM | > 100 µM | > 100 µM | > 100 µM | > 100 µM |  |  |  |  |  |  |  |  |  |  | 
COc1cc(NS(C)(=O)=O)ccc1Nc1c2ccc([N+](=O)[O-])cc2nc2c(C)cccc12 | 2.92 µM | 7.28 µM | 1.97 µM | 2.38 µM | 9.36 µM | 12.2 µM |  | 4.29 µM | 14.4 µM | 0.226 µM | 2.07 µM | 0.241 µM | 0.15 µM | 1.45 µM | 0.349 µM |  | 0.371 µM | 2.87 µM | 1.96 µM | 22.3 µM
COC(=O)C1=C(c2ccc(OC)c(OC)c2)OC(c2ccc(OC)c(OC)c2)C1 (stereo not drawn) | 46.9 µM | > 100 µM | > 100 µM | > 100 µM | > 100 µM | > 100 µM | > 100 µM | > 100 µM | > 100 µM |  |  |  |  |  |  |  |  |  |  | 
CN1C(=O)CC(c2cccc(C3CC(=O)N(C)C3=O)n2)C1=O (stereo not drawn) | > 100 µM | > 100 µM | > 100 µM | > 100 µM | > 100 µM | > 100 µM | > 100 µM | > 100 µM | > 100 µM |  |  |  |  |  |  |  |  |  |  | 
CC(C)(C)NNC(=O)/C(=C/c1ccc([N+](=O)[O-])cc1)NC(=O)c1ccccc1 | > 100 µM | > 100 µM | > 100 µM | 37.2 µM | > 100 µM |  | > 100 µM | > 100 µM | > 100 µM |  |  |  |  |  |  |  |  |  |  | 
CN(C)c1ccc2c(=O)c3ccccc3oc2n1 |  | > 100 µM |  | > 100 µM | > 100 µM | > 100 µM | > 100 µM | > 100 µM | > 100 µM |  |  |  |  |  |  |  |  |  |  | 
COc1ccc(C2CC(=O)c3c(O)cc(O)cc3O2)cc1O (stereo not drawn) | > 100 µM | > 100 µM | > 100 µM | > 100 µM | > 100 µM | > 100 µM | > 100 µM | > 100 µM | > 100 µM |  |  |  |  |  |  |  |  |  |  | 
Cc1ccccc1NC(=O)C(=O)C(C#N)c1ccc(Cl)cc1 (stereo not drawn) | > 100 µM | 75.9 µM | 83.5 µM | 31 µM | > 100 µM | 31.2 µM | > 100 µM | > 100 µM | > 100 µM |  |  |  |  |  |  |  |  |  |  | 
CC(=O)N[C@@H](Cc1ccc(OP(=O)(O)O)cc1)C(=O)N[C@H]1CCC(=O)N2CCC[C@@H](C(=O)NCc3ccc(Cl)cc3)N2C1=O | > 25 µM | > 25 µM | > 25 µM | > 25 µM | > 25 µM | > 25 µM |  | > 25 µM | > 25 µM | > 25 µM | > 25 µM | > 25 µM | > 25 µM | > 25 µM | > 25 µM |  | > 25 µM | > 25 µM | > 25 µM | > 25 µM
